From ChEMBL document CHEMBL1201862, “PubChem BioAssay data set” (2004)
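Method: 48-hour compound exposure of cells in 96-well plates, five concentrations, linear interpolation of endpoints. The concentration for 50% growth inhibition is given as GI50.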 Activity calls are given as the source filed them. Cut-off read from the data, not from the text of the source: active = GI50 up to about 1.1 µM and inactive = higher.

What was measured:
Assay in all cases: inhibition of tumour cell growth, NCI panel, 48 h
[1] = test system: A549
[2] = test system: COLO 205
[3] = test system: DMS-114
[4] = test system: DMS-273
[5] = test system: HCC 2998
[6] = test system: HOP-18
[7] = test system: LXFL 529
[8] = test system: MOLT-4
[9] = test system: NCI-H226
[10] = test system: OVCAR-5
[11] = test system: SF-268
[12] = test system: SK-OV-3
[13] = test system: SW-620
[14] = test system: TK-10

Measured: GI50

OC1CCOc2ccccc21 (stereo not drawn)
inactive: [1] > 100 µM | [2] > 100 µM | [3] > 100 µM | [4] > 100 µM | [5] > 100 µM | [6] 56.2 µM | [7] > 100 µM | [8] > 100 µM | [9] > 100 µM | [10] > 100 µM | [11] > 100 µM | [12] > 100 µM | [13] > 100 µM | [14] > 100 µM

Cc1ccc(C2CC(c3cccc([N+](=O)[O-])c3)=Nc3ccccc3S2)cc1 (stereo not drawn)
inactive: [1] 48.8 µM | [2] 98.2 µM | [3] 22.5 µM | [4] 33.7 µM | [5] 82.2 µM | [6] 15.4 µM | [7] 27.2 µM | [8] 25.5 µM | [9] > 44.1 µM | [10] > 100 µM | [11] 34.9 µM | [12] > 100 µM | [13] 16.1 µM | [14] 83.2 µM
